# According to patent publication US9809623B2, “α4β7 peptide monomer and dimer antagonists” (Protagonist Therapeutics, Inc., priority 2014, dated 2017):
# Numbered stars: 1 amine (or outer) side, 2 acyl side, 3 side chain; on linkers, the order of the positions; unused ones are H or OH. Bridge positions count the residues as written; N and C are the ends. Square brackets hold non-standard residues; d marks the D form. Peptide text beside a SMILES is read from it. I, II: the chains in the order shown. Phe(4-COOH) = N[C@@H](Cc1ccc(C(=O)O)cc1)C(=O)O; Phe(4-tBu) = CC(C)(C)c1ccc(C[C@H](N)C(=O)O)cc1; Bip = N[C@@H](Cc1ccc(-c2ccccc2)cc1)C(=O)O; 1Nal = N[C@@H](Cc1cccc2ccccc12)C(=O)O; Diglycolyl = O=C(COCC(=O)[*:2])[*:1]; NMeR = CN[C@@H](CCCNC(=N)N)C(=O)O; β3hE = N[C@@H](CCC(=O)O)CC(=O)O; NMeK = CN[C@@H](CCCCN)C(=O)O; Pen = CC(C)(S)[C@H](N)C(=O)O; dNMeK = CN[C@H](CCCCN)C(=O)O
# Biological target: T1, rh integrin α4β7 (Homo sapiens, UniProt P13612+P26010)
# T1 construct: purchased R&D Systems 5397-A30
# Test: α4β7-MAdCAM Competition ELISA
# Type: binding
# Conditions: Table 3-B, Potency (α4β7); range classes; read-out: α4β7 ELISA IC50
# Method in brief: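 Competition read-out was A450 after anti-human IgG1-HRP and TMB detection of bound recombinant human MAdCAM-1 (10 nM final). Peptides were serially diluted 3-fold from a final 10 μM and equilibrated 1 h at room temperature on nickel-captured α4β7 (800 ng/well). The buffer was Tris pH 7.6 with 1 mM Mn2+ or Mg2+.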
# T1 sequence (P13612 34-977 limits assumed): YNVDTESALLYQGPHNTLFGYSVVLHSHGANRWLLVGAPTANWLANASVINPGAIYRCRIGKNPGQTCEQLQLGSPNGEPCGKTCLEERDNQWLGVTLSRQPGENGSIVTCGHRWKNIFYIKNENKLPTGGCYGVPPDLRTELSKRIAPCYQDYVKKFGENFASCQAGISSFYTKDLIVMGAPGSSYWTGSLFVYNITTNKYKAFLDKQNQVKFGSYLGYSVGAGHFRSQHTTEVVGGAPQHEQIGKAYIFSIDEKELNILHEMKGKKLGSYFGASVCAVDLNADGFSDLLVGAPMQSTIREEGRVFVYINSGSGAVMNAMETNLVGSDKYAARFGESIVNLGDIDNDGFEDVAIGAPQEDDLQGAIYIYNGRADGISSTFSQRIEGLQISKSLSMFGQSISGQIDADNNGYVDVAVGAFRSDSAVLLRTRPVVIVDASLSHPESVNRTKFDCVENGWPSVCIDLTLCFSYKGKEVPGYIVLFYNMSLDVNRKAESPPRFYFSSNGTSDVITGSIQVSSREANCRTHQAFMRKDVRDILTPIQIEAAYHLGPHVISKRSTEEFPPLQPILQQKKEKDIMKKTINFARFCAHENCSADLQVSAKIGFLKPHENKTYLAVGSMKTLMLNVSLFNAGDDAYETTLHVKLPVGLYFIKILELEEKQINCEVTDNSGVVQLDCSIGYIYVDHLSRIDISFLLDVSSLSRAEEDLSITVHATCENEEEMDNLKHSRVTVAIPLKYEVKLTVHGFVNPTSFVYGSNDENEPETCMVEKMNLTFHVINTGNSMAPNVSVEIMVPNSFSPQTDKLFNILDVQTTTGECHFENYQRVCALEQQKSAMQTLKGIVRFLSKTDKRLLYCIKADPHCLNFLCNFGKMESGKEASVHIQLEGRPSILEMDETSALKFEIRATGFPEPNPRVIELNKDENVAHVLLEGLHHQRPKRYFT
# T1 sequence (P26010 20-723 limits assumed): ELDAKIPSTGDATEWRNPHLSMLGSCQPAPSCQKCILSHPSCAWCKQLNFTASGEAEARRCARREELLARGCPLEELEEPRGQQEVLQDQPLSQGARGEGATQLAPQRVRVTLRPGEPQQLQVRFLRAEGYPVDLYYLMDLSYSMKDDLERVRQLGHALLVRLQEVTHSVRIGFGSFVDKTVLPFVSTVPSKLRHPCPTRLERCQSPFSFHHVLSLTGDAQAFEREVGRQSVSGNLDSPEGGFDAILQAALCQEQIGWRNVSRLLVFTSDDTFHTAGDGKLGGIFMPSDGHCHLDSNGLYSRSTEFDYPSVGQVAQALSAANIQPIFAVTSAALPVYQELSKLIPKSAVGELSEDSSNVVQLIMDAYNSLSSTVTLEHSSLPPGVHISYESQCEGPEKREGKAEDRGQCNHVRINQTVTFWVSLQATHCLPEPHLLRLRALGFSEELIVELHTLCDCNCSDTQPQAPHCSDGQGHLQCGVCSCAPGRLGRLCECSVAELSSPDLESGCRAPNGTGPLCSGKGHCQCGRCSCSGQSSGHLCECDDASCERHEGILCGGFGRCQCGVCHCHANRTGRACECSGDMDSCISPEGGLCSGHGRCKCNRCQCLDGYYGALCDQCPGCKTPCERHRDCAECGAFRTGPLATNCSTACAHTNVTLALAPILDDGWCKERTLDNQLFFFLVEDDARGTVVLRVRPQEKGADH
row,Structure (SMILES),IC50
1,"CC(=O)N[C@@H]1C(=O)N(C)[C@@H](CCCNC(=N)N)C(=O)N[C@@H](CO)C(=O)N[C@@H](CC(=O)O)C(=O)N[C@@H]([C@@H](C)O)C(=O)N[C@@H](CC(C)C)C(=O)N[C@H](C(=O)N[C@@H](Cc2ccc(-c3ccccc3)cc2)C(=O)N[C@@H](CCC(=O)O)CC(=O)N(C)[C@@H](CCCCNC(=O)COCC(=O)NCCCC[C@@H](C(N)=O)N(C)C(=O)C[C@H](CCC(=O)O)NC(=O)[C@H](Cc2ccc(-c3ccccc3)cc2)NC(=O)[C@H]2NC(=O)[C@H](CC(C)C)NC(=O)[C@H]([C@@H](C)O)NC(=O)[C@H](CC(=O)O)NC(=O)[C@H](CO)NC(=O)[C@H](CCCNC(=N)N)N(C)C(=O)[C@@H](NC(C)=O)C(C)(C)SSC2(C)C)C(N)=O)C(C)(C)SSC1(C)C [compound 150] (I: Ac-[Pen][NMeR]SDTL[Pen][Bip][β3hE][NMeK]-NH2 / II: Ac-[Pen][NMeR]SDTL[Pen][Bip][β3hE][NMeK]-NH2; disulfide I:1-I:7, II:1-II:7; linker I:10-II:10 via Diglycolyl)",< 10 nM
2,"CC(=O)N[C@@H]1C(=O)N(C)[C@@H](CCCNC(=N)N)C(=O)N[C@@H](CO)C(=O)N[C@@H](CC(=O)O)C(=O)N[C@@H]([C@@H](C)O)C(=O)N[C@@H](CC(C)C)C(=O)N[C@H](C(=O)N[C@@H](Cc2ccc(C(=O)O)cc2)C(=O)N[C@@H](CCC(=O)O)C(=O)N[C@H](CCCCNC(=O)COCC(=O)NCCCC[C@@H](NC(=O)[C@H](CCC(=O)O)NC(=O)[C@H](Cc2ccc(C(=O)O)cc2)NC(=O)[C@H]2NC(=O)[C@H](CC(C)C)NC(=O)[C@H]([C@@H](C)O)NC(=O)[C@H](CC(=O)O)NC(=O)[C@H](CO)NC(=O)[C@H](CCCNC(=N)N)N(C)C(=O)[C@@H](NC(C)=O)C(C)(C)SSC2(C)C)C(N)=O)C(N)=O)C(C)(C)SSC1(C)C [compound 129] (I: Ac-[Pen][NMeR]SDTL[Pen][Phe(4-COOH)]E[dK]-NH2 / II: Ac-[Pen][NMeR]SDTL[Pen][Phe(4-COOH)]E[dK]-NH2; disulfide I:1-I:7, II:1-II:7; linker I:10-II:10 via Diglycolyl)",< 10 nM
3,CC(=O)N[C@@H]1C(=O)N(C)[C@@H](CCCNC(=N)N)C(=O)N[C@@H](CO)C(=O)N[C@@H](CC(=O)O)C(=O)N[C@@H]([C@@H](C)O)C(=O)N[C@@H](CC(C)C)C(=O)N[C@H](C(=O)N[C@@H](Cc2ccc(C(C)(C)C)cc2)C(=O)N[C@@H](CCC(=O)O)CC(=O)N[C@H](CCCCN)C(N)=O)C(C)(C)SSC1(C)C [compound 153] (Ac-[Pen][NMeR]SDTL[Pen][Phe(4-tBu)][β3hE][dK]-NH2; disulfide 1-7),10 to 25 nM
4,CC(=O)N[C@@H]1C(=O)N(C)[C@@H](CCCNC(=N)N)C(=O)N[C@@H](CO)C(=O)N[C@@H](CC(=O)O)C(=O)N[C@@H]([C@@H](C)O)C(=O)N[C@@H](CC(C)C)C(=O)N[C@H](C(=O)N[C@@H](Cc2ccc(C(C)(C)C)cc2)C(=O)N[C@@H](CCC(=O)O)CC(=O)O)C(C)(C)SSC1(C)C [compound 152] (Ac-[Pen][NMeR]SDTL[Pen][Phe(4-tBu)][β3hE]-OH; disulfide 1-7),< 10 nM
5,"CC(=O)N[C@@H]1C(=O)N(C)[C@@H](CCCNC(=N)N)C(=O)N[C@@H](CO)C(=O)N[C@@H](CC(=O)O)C(=O)N[C@@H]([C@@H](C)O)C(=O)N[C@@H](CC(C)C)C(=O)N[C@H](C(=O)N[C@@H](Cc2ccc(C(=O)O)cc2)C(=O)N[C@@H](CCC(=O)O)CC(=O)N[C@H](CCCCNC(=O)COCC(=O)NCCCC[C@@H](NC(=O)C[C@H](CCC(=O)O)NC(=O)[C@H](Cc2ccc(C(=O)O)cc2)NC(=O)[C@H]2NC(=O)[C@H](CC(C)C)NC(=O)[C@H]([C@@H](C)O)NC(=O)[C@H](CC(=O)O)NC(=O)[C@H](CO)NC(=O)[C@H](CCCNC(=N)N)N(C)C(=O)[C@@H](NC(C)=O)C(C)(C)SSC2(C)C)C(N)=O)C(N)=O)C(C)(C)SSC1(C)C [compound 130] (I: Ac-[Pen][NMeR]SDTL[Pen][Phe(4-COOH)][β3hE][dK]-NH2 / II: Ac-[Pen][NMeR]SDTL[Pen][Phe(4-COOH)][β3hE][dK]-NH2; disulfide I:1-I:7, II:1-II:7; linker I:10-II:10 via Diglycolyl)",< 10 nM
6,"CC(=O)N[C@@H]1C(=O)N(C)[C@@H](CCCNC(=N)N)C(=O)N[C@@H](CO)C(=O)N[C@@H](CC(=O)O)C(=O)N[C@@H]([C@@H](C)O)C(=O)N[C@@H](CC(C)C)C(=O)N[C@H](C(=O)N[C@@H](Cc2ccc(C(=O)O)cc2)C(=O)N[C@@H](CCC(=O)O)CC(=O)N(C)[C@@H](CCCCNC(=O)COCC(=O)NCCCC[C@@H](C(N)=O)N(C)C(=O)C[C@H](CCC(=O)O)NC(=O)[C@H](Cc2ccc(C(=O)O)cc2)NC(=O)[C@H]2NC(=O)[C@H](CC(C)C)NC(=O)[C@H]([C@@H](C)O)NC(=O)[C@H](CC(=O)O)NC(=O)[C@H](CO)NC(=O)[C@H](CCCNC(=N)N)N(C)C(=O)[C@@H](NC(C)=O)C(C)(C)SSC2(C)C)C(N)=O)C(C)(C)SSC1(C)C [compound 148] (I: Ac-[Pen][NMeR]SDTL[Pen][Phe(4-COOH)][β3hE][NMeK]-NH2 / II: Ac-[Pen][NMeR]SDTL[Pen][Phe(4-COOH)][β3hE][NMeK]-NH2; disulfide I:1-I:7, II:1-II:7; linker I:10-II:10 via Diglycolyl)",< 10 nM
7,"CC(=O)N[C@@H]1C(=O)N(C)[C@@H](CCCNC(=N)N)C(=O)N[C@@H](CO)C(=O)N[C@@H](CC(=O)O)C(=O)N[C@@H]([C@@H](C)O)C(=O)N[C@@H](CC(C)C)C(=O)N[C@H](C(=O)N[C@@H](Cc2cccc3ccccc23)C(=O)N[C@@H](CCC(=O)O)CC(=O)N(C)[C@@H](CCCCNC(=O)COCC(=O)NCCCC[C@@H](C(N)=O)N(C)C(=O)C[C@H](CCC(=O)O)NC(=O)[C@H](Cc2cccc3ccccc23)NC(=O)[C@H]2NC(=O)[C@H](CC(C)C)NC(=O)[C@H]([C@@H](C)O)NC(=O)[C@H](CC(=O)O)NC(=O)[C@H](CO)NC(=O)[C@H](CCCNC(=N)N)N(C)C(=O)[C@@H](NC(C)=O)C(C)(C)SSC2(C)C)C(N)=O)C(C)(C)SSC1(C)C [compound 142] (I: Ac-[Pen][NMeR]SDTL[Pen][1Nal][β3hE][NMeK]-NH2 / II: Ac-[Pen][NMeR]SDTL[Pen][1Nal][β3hE][NMeK]-NH2; disulfide I:1-I:7, II:1-II:7; linker I:10-II:10 via Diglycolyl)",< 10 nM
8,"CC(=O)N[C@@H]1C(=O)N(C)[C@@H](CCCNC(=N)N)C(=O)N[C@@H](CO)C(=O)N[C@@H](CC(=O)O)C(=O)N[C@@H]([C@@H](C)O)C(=O)N[C@@H](CC(C)C)C(=O)N[C@H](C(=O)N[C@@H](Cc2ccc(C(=O)O)cc2)C(=O)N[C@@H](CCC(=O)O)C(=O)N(C)[C@@H](CCCCNC(=O)COCC(=O)NCCCC[C@@H](C(N)=O)N(C)C(=O)[C@H](CCC(=O)O)NC(=O)[C@H](Cc2ccc(C(=O)O)cc2)NC(=O)[C@H]2NC(=O)[C@H](CC(C)C)NC(=O)[C@H]([C@@H](C)O)NC(=O)[C@H](CC(=O)O)NC(=O)[C@H](CO)NC(=O)[C@H](CCCNC(=N)N)N(C)C(=O)[C@@H](NC(C)=O)C(C)(C)SSC2(C)C)C(N)=O)C(C)(C)SSC1(C)C [compound 147] (I: Ac-[Pen][NMeR]SDTL[Pen][Phe(4-COOH)]E[NMeK]-NH2 / II: Ac-[Pen][NMeR]SDTL[Pen][Phe(4-COOH)]E[NMeK]-NH2; disulfide I:1-I:7, II:1-II:7; linker I:10-II:10 via Diglycolyl)",< 10 nM
9,"CC(=O)N[C@@H]1C(=O)N(C)[C@@H](CCCNC(=N)N)C(=O)N[C@@H](CO)C(=O)N[C@@H](CC(=O)O)C(=O)N[C@@H]([C@@H](C)O)C(=O)N[C@@H](CC(C)C)C(=O)N[C@H](C(=O)N[C@@H](Cc2cccc3ccccc23)C(=O)N[C@@H](CCC(=O)O)C(=O)N(C)[C@H](CCCCNC(=O)COCC(=O)NCCCC[C@H](C(N)=O)N(C)C(=O)[C@H](CCC(=O)O)NC(=O)[C@H](Cc2cccc3ccccc23)NC(=O)[C@H]2NC(=O)[C@H](CC(C)C)NC(=O)[C@H]([C@@H](C)O)NC(=O)[C@H](CC(=O)O)NC(=O)[C@H](CO)NC(=O)[C@H](CCCNC(=N)N)N(C)C(=O)[C@@H](NC(C)=O)C(C)(C)SSC2(C)C)C(N)=O)C(C)(C)SSC1(C)C [compound 44] (I: Ac-[Pen][NMeR]SDTL[Pen][1Nal]E[dNMeK]-NH2 / II: Ac-[Pen][NMeR]SDTL[Pen][1Nal]E[dNMeK]-NH2; disulfide I:1-I:7, II:1-II:7; linker I:10-II:10 via Diglycolyl)",< 10 nM

# Same assay, conditions: Table 4-B; read-out: ELISA α4β7 IC50
row,Structure (SMILES),IC50
1,"CC(=O)N[C@H]1CSSC[C@@H](C(=O)NCC(=O)N[C@@H](CCC(=O)O)C(=O)N[C@@H](CCCCN)C(=O)O)NC(=O)[C@H](CC(C)C)NC(=O)[C@H]([C@@H](C)O)NC(=O)[C@H](CC(=O)O)NC(=O)[C@H](CO)NC(=O)[C@H](CCCNC(=N)N)N(C)C1=O [compound 199, Ac-C-N-Me-R-S-D-T-L-C-G-E-K-OH] (Ac-C[NMeR]SDTLCGEK-OH; disulfide 1-7)",58 nM
2,"CC(=O)N[C@H]1CSSC[C@@H](C(=O)NCC(=O)N[C@@H](CCC(=O)O)C(=O)N[C@@H](CCCCNC(=O)COCC(=O)NCCCC[C@H](NC(=O)[C@H](CCC(=O)O)NC(=O)CNC(=O)[C@@H]2CSSC[C@H](NC(C)=O)C(=O)N(C)[C@@H](CCCNC(=N)N)C(=O)N[C@@H](CO)C(=O)N[C@@H](CC(=O)O)C(=O)N[C@@H]([C@@H](C)O)C(=O)N[C@@H](CC(C)C)C(=O)N2)C(=O)O)C(=O)O)NC(=O)[C@H](CC(C)C)NC(=O)[C@H]([C@@H](C)O)NC(=O)[C@H](CC(=O)O)NC(=O)[C@H](CO)NC(=O)[C@H](CCCNC(=N)N)N(C)C1=O [compound 201, (Ac-C-N-Me-R-S-D-T-L-C-G-E-K-OH)2-DIG] (I: Ac-C[NMeR]SDTLCGEK-OH / II: Ac-C[NMeR]SDTLCGEK-OH; disulfide I:1-I:7, II:1-II:7 (inferred); linker I:10-II:10 via Diglycolyl (inferred))",1 nM
